Assay results published in patent US20090325923A1, “NEW METHOD FOR THE TREATMENT OF INFLAMMATORY DISEASES” (TOPOTARGET SWITZERLAND SA, priority 2006, published 2009).

Legend:
TNFα = assay: Serum TNFα after LPS challenge (endotoxemia); assay type: in vivo, mouse; conditions: 10 mg/kg ip 7 h before ip LPS, bled 90 min later, vs placebo
Procedure: Mice were treated with thioglycollate to elicit PEC, and then received 10 mg/kg FK866 or placebo by ip injection 7 h before ip challenge with LPS. Mean serum TNFα at 90 min+sem of 3 mice per group is shown. PEC were obtained by lavage and intracellular NAD was determined. Data are mean±sem of 3 mice per group.
This example illustrates that NAMPT inhibition reduces circulating TNFα during endotoxemia and correlates with diminished intracellular NAD in inflammatory cells. Naïve mice were treated ip with thioglycollate to elicit inflammatory cells, and then were treated ip with placebo or 10 mg/kg FK866 7 h before an intraperitoneal injection of LPS. Mice were bled 90 min later for evaluation of serum TNFα levels.

[1] = system: collagen-induced arthritis; assay: Collagen-induced arthritis (CIA) mouse model; assay type: in vivo
[2] = system: human peripheral blood mononuclear cells (PBMC); assay: LPS-stimulated TNF and IL-6 secretion by ELISA in PBMC; assay type: cell-based; conditions: overnight increasing doses of FK866, LPS 6 h
Procedure: Human monocytic cell line THP-1, human peripheral blood mononuclear cells (PBMC), human monocyte-derived dendritic cells, or mouse peritoneal macrophages were isolated and cultured overnight with increasing doses of FK866, and then stimulated with LPS for 6 h. The culture supernatants were tested for TNF and IL-6 content by ELISA
This example describes the inhibition of pro-inflammatory cytokines production by the competitive small molecular weight compound inhibitor of NMPRT, ((E)-N-[4-(1-benzoylpiperidin-4-yl)butyl]-3-(pyridin-3-yl)acrylamide, designated FK866). Human monocytic cell line THP-1, human peripheral blood mononuclear cells (PBMC), human monocyte-derived dendritic cells, or mouse peritoneal macrophages were isolated and cultured overnight with increasing doses of FK866, and then stimulated with LPS for 6 h. The culture supernatants were tested for TNF and IL-6 content by ELISA.

RAW264.7 cell line = assay: Intracellular NAD by enzymatic assay in RAW264.7 cells; assay type: cell-based, mouse; conditions: RAW264.7, overnight increasing doses of FK866, LPS 2 h
Procedure: (A) The mouse macrophage cell line RAW264.7 was cultured overnight with increasing doses of FK866, and then stimulated with LPS for 2 h. The culture supernatants were tested for TNF content by ELISA and intracellular NAD levels were measured by an enzymatic assay.
(B) RAW264.7 cells were cultured overnight in the presence of FK866 and the intracellular pool of NAD was restored by co-incubation of the cells with nicotinic acid (NA). Cells were then stimulated with LPS for 2 h and the culture supernatant was tested for TNF content by ELISA.
(C) RAW264.7 cells were cultured overnight in the presence of FK866 and NAD levels were maintained by culturing the cells in the presence of extracellular NAD. Cells were then stimulated with LPS for 2 h and the culture supernatant was tested for TNF content by ELISA.
This example illustrates the correlation between proinflammatory cytokine secretion and NAD levels in the cell. The mouse macrophage cell line RAW264.7 was cultured overnight with increasing doses of FK866, and then stimulated with LPS for 2 h. The culture supernatants were tested for TNF content by ELISA and intracellular NAD levels were measured by an enzymatic assay.
In another experiment, RAW264.7 cells were cultured overnight in the presence of FK866 and the intracellular pool of NAD was restored by co-incubation of the cells with nicotinic acid. Nicotinic acid is a precursor of NAD, but its transformation into NAD is not dependent upon NMPRT and is thus not inhibited by FK866. Cells were then stimulated with LPS for 2 h and the culture supernatant was tested for TNF content by ELISA.
In another experiment, RAW264.7 cells were cultured overnight in the presence of FK866 and NAD levels were maintained by culturing the cells in the presence: of extra-cellular NAD. Cells were then stimulated with LPS for 2 h and the culture supernatant was tested for TNF content by ELISA.

[3] = Toxicity and tolerability in treated CIA mice (weight, histopathology, ALT, hematology); assay type: in vivo, mouse
Procedure: Test mice (n=20) were twice daily treated ip with 10 mg/kg of FK866 from the first day onward of appearance of clinical arthritis (clinical score>1) during 14 days. Placebo mice (n=20) received vehicle only. Groups of animals were compared with respect to variation of their clinical scoring, and of their weight (d) by statistical analysis using the two-way ANOVA. A semi-quantitative histological evaluation was performed on the knee sections using a 4 points (0-3) scoring system to evaluate inflammatory infiltrate and synovial hyperplasia. (c) Circulating SAA levels: Sera from placebo- and FK866-treated CIA mice at day 14 (n=8 and n=7, respectively) were prepared and analyzed by SAA ELISA according to the manufacturer's instructions.

[4] = 10 mg/kg ip twice daily, 14 days, 0-3 histological score, vs placebo
[5] = CIA mice, end of the experiment

For `O=C(/C=C/c1cccnc1)NCCCCC1CCN(C(=O)c2ccccc2)CC1` [FK866, (E)-N-[4-(1-benzoylpiperidin-4-yl)butyl]-3-(pyridine-3-yl)-acrylamide], the “circulating (serum) TNFα levels” value (TNFα) was “significant decrease”, the “inflammatory infiltrate in knee joint sections” value [1, 4] was “statistically significant decrease” and the “synovial hyperplasia in knee joint sections” value [1, 4] was “statistically significant decrease”. For the same molecule, the “histology of knees and paws” value ([1]; 10 mg/kg ip twice daily, 14 days, vs placebo) was “much less inflammation”, the paw inflammation ([1]; 10 mg/kg ip twice daily, after 2 weeks of treatment, vs placebo) was “minimal signs of inflammation” and the “effect on established CIA (dose-response)” value ([1]; 2, 5 or 10 mg/kg ip twice daily for 15 days) was “marked protective dose-dependent effect”. The “IL-1β in paw tissue extracts” value [1, 5] was “significantly reduced”, the “IL-6 in paw tissue extracts” value [1, 5] was “significantly reduced” and the “IL-10 secretion in paw tissue extracts” value [1, 5] was “remained unchanged”. The “MCP-1 in paw tissue extracts” value [1, 5] was “decreased”, the “symptoms of arthritis (clinical score)” value ([1]; DBA/1 mice, 10 mg/kg ip twice daily for 15 days from clinical score ≧1) was “ameliorates the symptoms of arthritis” and the “severity of arthritis in CIA mice” value ([1]; FK866 10 mg/kg ip twice daily or etanercept 15 mg/kg every three days, over 15 days) was “activity similar to etanercept”. For the same molecule, the “time until beneficial effect apparent after commencement of treatment” value ([1]; established CIA) was no more than 10 days, the “dose of maximal therapeutic effect on CIA” value ([1]; ip twice daily for 15 days) was 10 mg/kg and the “Serum amyloid A protein (SAA) levels” value ([1]; sera of CIA mice at day 14, ELISA, vs placebo) was “decreased”. The “cytokine secretion (TNF and IL-6)” value [2] was “inhibited cytokine secretion in a dose-dependent fashion”, the “intracellular NAD levels” value (RAW264.7 cell line) was “inhibition of intracellular NAD levels” and the tolerability ([3]; CIA mice, 10 mg/kg ip twice daily) was “well tolerated”. The signs of toxicity ([3]; CIA mice, 10 mg/kg ip twice daily, 14 days) was “no signs of toxicity”, the “% LYMPHO, mean” value ([3]; hematology of treated CIA mice) was 60% and the “% MONO, mean” value ([3]; hematology of treated CIA mice) was 10.4%. The “% NEUTRO, mean” value ([3]; hematology of treated CIA mice) was 29.7%, the “HCT, mean” value ([3]; hematology of treated CIA mice) was 52.8% and the “HGB, mean” value ([3]; hematology of treated CIA mice) was 14.1 g/dL. For the same molecule, the “PLT, mean” value ([3]; hematology of treated CIA mice) was 1688 10^3/mm^3, the “RBC, mean” value ([3]; hematology of treated CIA mice) was 9.4 10^3/mm^3 and the “WBC, mean” value ([3]; hematology of treated CIA mice) was 11.5 10^6/mm^3. The “weight of the mice” value ([3]; placebo- vs FK866-treated groups) was “comparable”, the premature death ([3]; treated group) was “no premature death” and the hematological examination ([3]; treated vs control mice) was “similarity between the treated and control mice”. The “histopathology of liver, spleen, lung, gut, kidney, inguinal lymph nodes and brain” value ([3]; vs control animals) was “no different from control animals”.
